Source: patent US6706663B2, “Herbicidal 3-heterocyclic substituted benzisothiazole and benzisoxazole compounds” (Wyeth, priority 2000, dated 2004)

Tests used:
[1] = tested on: ABUTH (Abutilon theophrasti); assay: Postemergence herbicidal evaluation; type: in vivo, Medic.
Summary of the method: (§1)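 Seedlings grown about two weeks in flats, sprayed, then kept under standard greenhouse care. Rated visually 4–5 weeks after treatment on a 0–9 scale (stand, vigour, malformation, size, chlorosis, overall appearance) relative to untreated control; repeat tests averaged.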

[2] = tested on: GLXMAW (Soybean, Williams); assay: Postemergence herbicidal evaluation; type: in vivo, Glycine max, (L.) Merr. cv Williams
Summary of the method: as §1

[3] = tested on: IPOHE (Ipomoea hederacea); assay: Postemergence herbicidal evaluation; type: in vivo, (L.) Jacq.
Summary of the method: as §1

[4] = tested on: ORYSAT (Rice, Tebonnet); assay: Postemergence herbicidal evaluation; type: in vivo, Oryza sativa, (L.) Tebonnet
Summary of the method: as §1

[5] = tested on: SETVI (Setaria viridis); assay: Postemergence herbicidal evaluation; type: in vivo, (L.) Beau
Summary of the method: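 Seedlings about two weeks old were sprayed with compound in 50/50 acetone/water plus 0.5% TWEEN 20, at the equivalent of about 0.0040 to 1.000 kg/ha. Plants were kept in a greenhouse and visually rated 0-9 against a control four to five weeks after treatment. Repeat tests were averaged.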

[6] = tested on: MOOVA (Monochoria vaginalis); assay: Flooded paddy, preemergence weed control; type: in vivo, Presl.; details: rated 3-4 weeks after treatment, 0-9 rating scale
Summary of the method: (§2)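 Seeds or propagules were planted in the top 0.5 cm of silt loam soil and kept flooded 1.5–3 cm above the surface throughout, then held in the greenhouse. Injury was rated visually on a 0–9 scale against untreated controls, covering stand, vigor, malformation, size and chlorosis.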

[7] = tested on: CYPIR (Cyperus iria); assay: Flooded paddy, preemergence weed control; type: in vivo; details: rated 3-4 weeks after treatment, 0-9 rating scale
Summary of the method: as §2

[8] = tested on: ECHORC (Echinochloa oryzoides); assay: Flooded paddy, preemergence weed control; type: in vivo, Echinochloa oryzoides (Ard.) Fritsch.; details: rated 3-4 weeks after treatment, 0-9 rating scale
Summary of the method: as §2

[9] = tested on: ORYSAT (Rice, Tebonnet); assay: Preemergence herbicidal evaluation; type: in vivo, Oryza sativa, (L.) Tebonnet; details: preemergence, rated 4-5 weeks after treatment
[10] = tested on: CHEAL (Chenopodium album); assay: Preemergence herbicidal evaluation; type: in vivo, L.; details: preemergence, rated 4-5 weeks after treatment
Summary of the method: (§3)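 Seeds planted in potting soil cups and sprayed preemergence with aqueous acetone compound solution. Greenhouse-grown; rated 4–5 weeks after treatment on a 0-9 visual scale (stand, vigor, malformation, size, chlorosis, appearance) versus control.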

[11] = tested on: AMBEL (Ambrosia artemisifolia); assay: Preemergence herbicidal evaluation; type: in vivo, L.; details: preemergence, rated 4-5 weeks after treatment
Summary of the method: as §3

[12] = tested on: CASOB (Cassia obtusifolia); assay: Preemergence herbicidal evaluation; type: in vivo, L.; details: preemergence, rated 4-5 weeks after treatment
Summary of the method: as §3

[13] = tested on: SAGPY (Sagittaria pygmaea); assay: Flooded paddy, preemergence weed control; type: in vivo, L.; details: rated 3-4 weeks after treatment, 0-9 rating scale
Summary of the method: as §2

[14] = tested on: SETVI (Setaria viridis); assay: Preemergence herbicidal evaluation; type: in vivo, (L.) Beau; details: preemergence, rated 4-5 weeks after treatment
Summary of the method: as §3

[15] = tested on: ECHCG (Echinochloa crus-galli); assay: Preemergence herbicidal evaluation; type: in vivo, (L.) Beau; details: preemergence, rated 4-5 weeks after treatment
Summary of the method: as §3

[16] = tested on: GALAP (Galium aparine); assay: Postemergence herbicidal evaluation; type: in vivo
Summary of the method: as §1

[17] = tested on: ECHCG (Echinochloa crus-galli); assay: Postemergence herbicidal evaluation; type: in vivo, (L.) Beau
Summary of the method: as §1

[18] = tested on: ORYSAT (Rice, Tebonnet); assay: Flooded paddy, post-transplant rice tolerance; type: in vivo, Oryza sativa, (L.) Tebonnet; details: flooded paddy, post-transplant rice, rated 3-4 weeks after treatment, 0-9 rating scale
Summary of the method: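 Ten-day-old seedlings, 2/pot, silt loam; flood kept 1.5–3 cm over soil; herbicide applied post-transplant; greenhouse; score 0–9 visual vs control.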

[19] = tested on: IPOHE (Ipomoea hederacea); assay: Preemergence herbicidal evaluation; type: in vivo, (L.) Jacq.; details: preemergence, rated 4-5 weeks after treatment
[20] = tested on: ZEAMX (Corn, Field); assay: Postemergence herbicidal evaluation; type: in vivo, Zea mays, L.
Summary of the method: as §1

COC(=O)COc1ccsc1-c1nsc2ccc(-n3c(=O)cc(C(F)(F)F)n(C)c3=O)cc12 [Compound 22, Methyl [(2-[5-[3,6-dihydro-3-methyl-2,6-dioxo-4-(trifluoromethyl)-1(2H)-pyrimidinyl]-1,2-benzisothiazol-3-yl]-3-thienyl]oxy]acetate]
Postemergence herbicidal rating, ABUTH ([1]; rate 0.0320 kg/ha): 5.0 | Postemergence herbicidal rating, ABUTH ([1]; rate 0.0620 kg/ha): 4.0 | Postemergence herbicidal rating, ABUTH ([1]; rate 0.1250 kg/ha): 6.0 | Postemergence herbicidal rating, GLXMAW ([2]; rate 0.0320 kg/ha): 5.5 | Postemergence herbicidal rating, GLXMAW ([2]; rate 0.0620 kg/ha): 5.5 | Postemergence herbicidal rating, GLXMAW ([2]; rate 0.1250 kg/ha): 6.5 | Postemergence herbicidal rating, IPOHE ([3]; rate 0.0320 kg/ha): 4.0 | Postemergence herbicidal rating, IPOHE ([3]; rate 0.0620 kg/ha): 4.0 | Postemergence herbicidal rating, IPOHE ([3]; rate 0.1250 kg/ha): 6.0 | Postemergence herbicidal rating, ORYSAT ([4]; rate 0.0320 kg/ha): 3.0 | Postemergence herbicidal rating, ORYSAT ([4]; rate 0.0620 kg/ha): 3.5 | Postemergence herbicidal rating, ORYSAT ([4]; rate 0.1250 kg/ha): 4.5 | Postemergence herbicidal rating, SETVI ([5]; rate 0.0320 kg/ha): 3.0 | Postemergence herbicidal rating, SETVI ([5]; rate 0.0620 kg/ha): 2.0 | Postemergence herbicidal rating, SETVI ([5]; rate 0.1250 kg/ha): 9.0 | herbicidal rating, MOOVA ([6]; rate 0.0080 kg/ha): 0.0 | herbicidal rating, MOOVA ([6]; rate 0.0320 kg/ha): 4.5 | herbicidal rating, MOOVA ([6]; rate 0.1250 kg/ha): 4.5 | herbicidal rating, CYPIR ([7]; rate 0.0080 kg/ha): 0.0 | herbicidal rating, CYPIR ([7]; rate 0.0320 kg/ha): 2.5 | herbicidal rating, CYPIR ([7]; rate 0.1250 kg/ha): 3.0 | herbicidal rating, ECHORC ([8]; rate 0.0080 kg/ha): 0.0 | herbicidal rating, ECHORC ([8]; rate 0.0320 kg/ha): 0.0 | herbicidal rating, ECHORC ([8]; rate 0.1250 kg/ha): 5.0 | ORYSAT preemergence herbicidal rating ([9]; Rate 0.0620 kg/ha): 0.0 | ORYSAT preemergence herbicidal rating ([9]; Rate 0.1250 kg/ha): 0.0 | ORYSAT preemergence herbicidal rating ([9]; Rate 0.2500 kg/ha): 0.0 | CHEAL preemergence herbicidal rating ([10]; Rate 0.0620 kg/ha): 0.0 | CHEAL preemergence herbicidal rating ([10]; Rate 0.1250 kg/ha): 3.0 | CHEAL preemergence herbicidal rating ([10]; Rate 0.2500 kg/ha): 9.0 | AMBEL preemergence herbicidal rating ([11]; Rate 0.0620 kg/ha): 0.0 | AMBEL preemergence herbicidal rating ([11]; Rate 0.1250 kg/ha): 0.0 | AMBEL preemergence herbicidal rating ([11]; Rate 0.2500 kg/ha): 2.0 | CASOB preemergence herbicidal rating ([12]; Rate 0.0620 kg/ha): 0.0 | CASOB preemergence herbicidal rating ([12]; Rate 0.1250 kg/ha): 0.0 | CASOB preemergence herbicidal rating ([12]; Rate 0.2500 kg/ha): 1.0 | herbicidal rating, SAGPY ([13]; rate 0.0080 kg/ha): 0.0 | herbicidal rating, SAGPY ([13]; rate 0.0320 kg/ha): 0.0 | herbicidal rating, SAGPY ([13]; rate 0.1250 kg/ha): 0.0 | SETVI preemergence herbicidal rating ([14]; Rate 0.0620 kg/ha): 0.0 | SETVI preemergence herbicidal rating ([14]; Rate 0.1250 kg/ha): 1.0 | SETVI preemergence herbicidal rating ([14]; Rate 0.2500 kg/ha): 3.0 | ECHCG preemergence herbicidal rating ([15]; Rate 0.0620 kg/ha): 0.0 | ECHCG preemergence herbicidal rating ([15]; Rate 0.1250 kg/ha): 0.0 | ECHCG preemergence herbicidal rating ([15]; Rate 0.2500 kg/ha): 1.0 | Postemergence herbicidal rating, GALAP ([16]; rate 0.0320 kg/ha): 0.0 | Postemergence herbicidal rating, GALAP ([16]; rate 0.0620 kg/ha): 0.0 | Postemergence herbicidal rating, GALAP ([16]; rate 0.1250 kg/ha): 1.0 | Postemergence herbicidal rating, ECHCG ([17]; rate 0.0320 kg/ha): 0.0 | Postemergence herbicidal rating, ECHCG ([17]; rate 0.0620 kg/ha): 2.0 | Postemergence herbicidal rating, ECHCG ([17]; rate 0.1250 kg/ha): 6.0 | herbicidal rating, ORYSAT (rice tolerance) ([18]; rate 0.0080 kg/ha): 0.0 | herbicidal rating, ORYSAT (rice tolerance) ([18]; rate 0.0320 kg/ha): 2.0 | herbicidal rating, ORYSAT (rice tolerance) ([18]; rate 0.1250 kg/ha): 2.5 | IPOHE preemergence herbicidal rating ([19]; Rate 0.0620 kg/ha): 0.0 | IPOHE preemergence herbicidal rating ([19]; Rate 0.1250 kg/ha): 0.0 | IPOHE preemergence herbicidal rating ([19]; Rate 0.2500 kg/ha): 0.0 | Postemergence herbicidal rating, ZEAMX ([20]; rate 0.0320 kg/ha): 4.5 | Postemergence herbicidal rating, ZEAMX ([20]; rate 0.0620 kg/ha): 6.0 | Postemergence herbicidal rating, ZEAMX ([20]; rate 0.1250 kg/ha): 7.0
